Data from patent US8124744B2, “Macrolide derivatives” (Taisho Pharmaceutical Co., Ltd., priority 2006, dated 2012).
pIC50: −log10 of the molar value. Converted amounts (≈) assume the structure as drawn. Like-named read-outs stand apart in the source and are kept apart here.

Columns and labels:
[1] = test system: Staphylococcus aureus ATCC29213; experiment: Minimal inhibitory concentration (MIC); type: cell-based
Description: (§1) To 7- to 9-week male C57BL/6J mice (purchased from CLEA Japan, Inc. or Japan SLC, Inc.), Zymosan A (SIGMA) derived from budding yeasts which is adjusted to be 1 mg/ml in a phosphate buffer solution (PBS, 10010-49, Invitrogen) was administered intraperitoneally at 1 ml per mouse to induce peritonitis. Three days later, filter-sterilized cell recovery buffer (2 mM EDTA, 0.5% bovine serum albumin, PBS, pH 7.4) was administered intraperitoneally at 5 ml per mouse to recover peritoneal exudata cells. The cells went through a cell strainer (70 μm nylon, FALCON) and were then washed twice with a Hanks solution (Invitrogen). The cells were suspended in 10% fetal calf serum-containing Dulbecco's modified Eagle's culture medium (Invitrogen). The suspension was seeded on a plate with 48 wells, after 6 hours, the culture medium was completely exchanged. After culturing for another 18 hours, test compounds were added at 0.02 to 20 μM of the final concentration. After 1 hour from the addition of the compounds, a tumor necrosis factor (TNF) α (R & D Systems) was added at 25 ng/ml of the final concentration, and 24 hours later, the culture supernatant was collected. The amount of pro MMP-9 protein in the supernatant was quantified by an enzyme-linked immunosorbent assay (ELISA) (R & D Systems), IC50 values of the test compounds on the increased amount by TNF α stimuli, were calculated by ORIGIN analysis software (trade name: OriginLab). In addition, minimal inhibitory concentration (MIC) of each test compounds (measured bacterium: Staphylococcus aureus ATCC29213) was measured. As a comparative agent […] A (clarithromycin) was used.

pro MMP-9 protein = experiment: Inhibitory activity against proMMP-9 protein production (TNF α-stimulated mouse peritoneal exudate cells, ELISA); type: cell-based, C57BL/6J mice; settings: for IC50: relative activity when the value of Comparative Agent 1 (IC50 = 10.04 ± 4.11 μM) is 10, on the increase of pro MMP-9 by TNF α 25 ng/ml, 24 hours, read-out: IC50 (μM)*
Description: as §1

Row | SMILES | MIC [1] | IC50 (pro MMP-9 protein) | pIC50 (pro MMP-9 protein; actual value of Comparative Agent 1 (table footnote), not normalised, read-out: IC50)
1 | CC[C@H]1OC(=O)[C@H](C)[C@@H](O[C@H]2C[C@@](C)(OC)[C@@H](OC(C)=O)[C@H](C)O2)[C@H](C)[C@@H](O[C@@H]2O[C@H](C)C[C@@H](N(C)Cc3cccnc3)[C@@H]2N(C)C)[C@@](C)(OC)C[C@@H](C)C(=O)[C@H](C)[C@@H](O)[C@]1(C)O [Example 189, 4″-O-acetyl-3′-N-demethyl-2′-deoxy-2′-dimethylamino-3′-N-(3-pyridylmethyl)-O-methylerythromycin A] | > 128 µg/mL | 3.38 µM | –
2 | CC[C@H]1OC(=O)[C@H](C)[C@@H](O[C@H]2C[C@@](C)(OC)[C@@H](OC(C)=O)[C@H](C)O2)[C@H](C)[C@@H](O[C@@H]2O[C@H](C)C[C@@H](N(C)Cc3ccccc3)[C@@H]2N(C)C)[C@@](C)(OC)C[C@@H](C)C(=O)[C@H](C)[C@@H](O)[C@]1(C)O [Example 170, 4″-O-acetyl-3′-N-demethyl-2′-deoxy-2′-dimethylamino-3′-N-benzyl-6-O-methylerythromycin A] | > 128 µg/mL | 1.01 µM | –
3 | CC[C@H]1OC(=O)[C@H](C)[C@@H](O[C@H]2C[C@@](C)(OC)[C@@H](O)[C@H](C)O2)[C@H](C)[C@@H](O[C@@H]2O[C@H](C)C[C@@H](N3CCOCC3)[C@@H]2N(C)C)[C@@](C)(OC)C[C@@H](C)C(=O)[C@H](C)[C@@H](O)[C@H]1C [Example 210, 3′-dedimethylamino-2′-deoxy-2′-dimethylamino-3′-(4-morpholino)-6-O-methylerythromycin B] | 128 µg/mL (≈ 160 µM) | 4.63 µM | –
4 | CC[C@H]1OC(=O)[C@H](C)[C@@H](O[C@H]2C[C@@](C)(OC)[C@@H](O)[C@H](C)O2)[C@H](C)[C@@H](O[C@@H]2O[C@H](C)C[C@H](N(C)C)[C@H]2OC)[C@@](C)(OC)C[C@@H](C)[C@H](O)[C@H](C)[C@@H](O)[C@]1(C)O [Example 141, 9-deoxo-9-(S)-hydroxy-6,2′-di-O-methylerythromycin A] | > 128 µg/mL | 2.18 µM | –
5 | CC[C@H]1OC(=O)[C@H](C)[C@@H](O[C@H]2C[C@@](C)(OC)[C@@H](OC(C)=O)[C@H](C)O2)[C@H](C)[C@@H](O[C@@H]2O[C@H](C)C[C@H](N(C)C)[C@H]2OCCCN2CCOCC2)[C@@](C)(OC)C[C@@H](C)C(=O)[C@H](C)[C@@H](O)[C@]1(C)O [Example 119, 4″-O-acetyl-2′-O-(3-(4-morpholino)propyl)-6-O-methylerythromycin A] | > 128 µg/mL | 4.42 µM | –
6 | CC[C@H]1OC(=O)[C@H](C)[C@@H](O[C@H]2C[C@@](C)(OC)[C@@H](O)[C@H](C)O2)[C@H](C)[C@@H](O[C@@H]2O[C@H](C)C[C@H](N(C)CCCO)[C@H]2OC)[C@@](C)(OC)C[C@@H](C)C(=O)[C@H](C)[C@@H](O)[C@]1(C)O [Example 132, 3′-N-demethyl-3′-N-(3-hydroxypropyl)-6,2′-di-O-methylerythromycin A] | > 128 µg/mL | 2.52 µM | –
7 | CC[C@H]1OC(=O)[C@H](C)[C@@H](O[C@H]2C[C@@](C)(OC)[C@@H](OC(C)=O)[C@H](C)O2)[C@H](C)[C@@H](O[C@@H]2O[C@H](C)C[C@@H](N3CCOCC3)[C@@H]2N(C)C)[C@@](C)(OC)C[C@@H](C)C(=O)[C@H](C)[C@H]2NC(=O)O[C@@]21C [Example 95, 4″-O-acetyl-11-amino-3′-dedimethylamino-11,2′-dideoxy-2′-dimethylamino-3′-(4-morpholino)-6-O-methylerythromycin A 11,12-cyclic carbamate] | > 128 µg/mL | 4.36 µM | –
8 | CC[C@H]1OC(=O)[C@H](C)[C@@H](O[C@H]2C[C@@](C)(OC)[C@@H](O)[C@H](C)O2)[C@H](C)[C@@H](O[C@@H]2O[C@H](C)C[C@@H](N(C)Cc3cccnc3)[C@@H]2N(C)C)[C@@](C)(OC)C[C@@H](C)C(=O)[C@H](C)[C@@H](O)[C@]1(C)O [Example 190, 3′-N-demethyl-2′-deoxy-2′-dimethylamino-3′-N-(3-pyridylmethyl)-6-O-methylerythromycin A] | > 128 µg/mL | 3.82 µM | –
9 | CC[C@H]1OC(=O)[C@H](C)[C@@H](O[C@H]2C[C@@](C)(OC)[C@@H](OC(C)=O)[C@H](C)O2)[C@H](C)[C@@H](O[C@@H]2O[C@H](C)C[C@@H](N3CCC(O)CC3)[C@@H]2N(C)C)[C@@](C)(OC)C[C@@H](C)C(=O)[C@H](C)[C@@H](O)[C@]1(C)O [Example 164, 4″-O-acetyl-3′-dedimethylamino-2′-deoxy-2′-dimethylamino-3′-(4-hydroxypiperidin-1-yl)-6-O-methylerythromycin A] | > 128 µg/mL | 2.77 µM | –
10 | CC[C@H]1OC(=O)[C@H](C)[C@@H](O)[C@H](C)[C@@H](O[C@@H]2O[C@H](C)C[C@H](N(C)Cc3ccccc3)[C@H]2O)[C@@](C)(O)C[C@@H](C)CN(C)[C@H](C)[C@@H](O)[C@]1(C)O [Example 20, 5-O-(3′-N-demethyl-3′-N-benzyl)desosaminyl-9-deoxo-9a-aza-9a-methyl-9a-homoerythronolide A] | > 128 µg/mL | 0.83 µM | –
11 | CC[C@H]1OC(=O)[C@H](C)[C@@H](O[C@H]2C[C@@](C)(OC)[C@@H](O)[C@H](C)O2)[C@H](C)[C@@H](O[C@@H]2O[C@H](C)C[C@H](N)[C@H]2OC)[C@@](C)(OC)C[C@@H](C)C(=O)[C@H](C)[C@@H](O)[C@]1(C)O [Example 138, 3′-N-dedimethyl-6,2′-di-O-methylerythromycin A] | > 128 µg/mL | 3.95 µM | –
12 | CC[C@H]1OC(=O)[C@H](C)[C@@H](O[C@H]2C[C@@](C)(OC)[C@@H](O)[C@H](C)O2)[C@H](C)[C@@H](O[C@@H]2O[C@H](C)C[C@@H](N3CCOCC3)[C@@H]2N(C)CCN(C)C)[C@@](C)(OC)C[C@@H](C)C(=O)[C@H](C)[C@@H](O)[C@]1(C)O [Example 216] | > 128 µg/mL | 2.55 µM | –
13 | CC[C@H]1OC(=O)[C@H](C)[C@@H](O[C@H]2C[C@@](C)(OC)[C@@H](OC(C)=O)[C@H](C)O2)[C@H](C)[C@@H](O[C@@H]2O[C@H](C)C[C@@H](N(C)Cc3ccccn3)[C@@H]2N(C)C)[C@@](C)(OC)C[C@@H](C)C(=O)[C@H](C)[C@@H](O)[C@]1(C)O [Example 191, 4″-O-acetyl-3′-N-demethyl-2′-deoxy-2′-dimethylamino-3′-N-(2-pyridylmethyl)-6-O-methylerythromycin A] | 128 µg/mL (≈ 143 µM) | 1.42 µM | –
14 | CC[C@H]1OC(=O)[C@H](C)[C@@H](O[C@H]2C[C@@](C)(OC)[C@@H](O)[C@H](C)O2)[C@H](C)[C@@H](O[C@@H]2O[C@H](C)C[C@H](N(C)C)[C@H]2O)[C@](C)(OC)C[C@@H](C)C(=O)[C@H](C)[C@@H](O)[C@]1(C)O [Comparative Agent 1, 6-O-methylerythromycin A, reference compound] | 0.25 µg/mL (≈ 0.334 µM) | 10 µM | 5.00
15 | CC[C@H]1OC(=O)[C@H](C)[C@@H](O[C@H]2C[C@@](C)(OC)[C@@H](OC(C)=O)[C@H](C)O2)[C@H](C)[C@@H](O[C@@H]2O[C@H](C)C[C@@H](NC)[C@@H]2N(C)C)[C@@](C)(OC)C[C@@H](C)C(=O)[C@H](C)[C@@H](O)[C@]1(C)O [Example 174, 4″-O-acetyl-3′-N-demethyl-2′-deoxy-2′-dimethylamino-6-O-methylerythromycin A] | > 128 µg/mL | 1.7 µM | –
16 | CC[C@H]1OC(=O)[C@H](C)[C@@H](O[C@H]2C[C@@](C)(OC)[C@@H](O)[C@H](C)O2)[C@H](C)[C@@H](O[C@@H]2O[C@H](C)C[C@@H](N(C)Cc3ccc(N4CCOCC4)cc3)[C@@H]2N(C)C)[C@@](C)(OC)C[C@@H](C)C(=O)[C@H](C)[C@@H](O)[C@]1(C)O [Example 182, 3′-N-demethyl-2′-deoxy-2′-dimethylamino-3′-N-(4-(4-morpholino)benzyl)methyl-6-O-methylerythromycin A] | > 128 µg/mL | 1.72 µM | –
17 | CC[C@H]1OC(=O)[C@H](C)[C@@H](O[C@H]2C[C@@](C)(OC)[C@@H](O)[C@H](C)O2)[C@H](C)[C@@H](O[C@@H]2O[C@H](C)C[C@H](N(C)C)[C@H]2OC)[C@@](C)(OC)C[C@@H](C)C(=O)[C@H](C)[C@@H](O)[C@]1(C)O [Example 31, 6,2′-di-O-methylerythromycin A] | > 128 µg/mL | 4.08 µM | –
18 | CC[C@H]1OC(=O)[C@H](C)[C@@H](O[C@H]2C[C@@H](C)[C@H](O)[C@](C)(OC)O2)[C@H](C)[C@@H](O[C@@H]2O[C@H](C)C[C@H](N(C)CCN(C)C)[C@H]2OC)[C@@](C)(OC)C[C@@H](C)C(=O)[C@H](C)[C@@H](O)[C@]1(C)O [Example 104, 3′-N-demethyl-3′-N-(2-dimethylaminoethyl)-6,2′-di-O-methylerythromycin A] | > 128 µg/mL | 5 µM | –
19 | CC[C@H]1OC(=O)[C@H](C)[C@@H](OC(C)=O)[C@H](C)[C@@H](O[C@@H]2O[C@H](C)C[C@@H](N3CCOCC3)[C@@H]2N(C)C)[C@@](C)(OC)C[C@@H](C)C(=O)[C@H](C)[C@@H](O)[C@]1(C)O [Example 203, 3-O-acetyl-5-O— (3′-dedimethylamino-2′-deoxy-2′-dimethylamino-3′-(4-morpholino)desosaminyl)-6-O-methylerythronolide A] | > 128 µg/mL | 5.03 µM | –
